This is an account of results in paper PMC6402191 (Clinical and Translational Science, 2017).

SMILES strings stand for the structures. Where two headings read alike, the source gives them in different places.

Data set [1] is described as follows: Pharmacokinetic input parameters of the PBPK models. It is filed as in vivo, human. Conditions: fitted to match clinical data.
The next data set deals with T1, OATP1B1 (Homo sapiens, UniProt Q9Y6L6).
T1 sequence (Q9Y6L6 1-691): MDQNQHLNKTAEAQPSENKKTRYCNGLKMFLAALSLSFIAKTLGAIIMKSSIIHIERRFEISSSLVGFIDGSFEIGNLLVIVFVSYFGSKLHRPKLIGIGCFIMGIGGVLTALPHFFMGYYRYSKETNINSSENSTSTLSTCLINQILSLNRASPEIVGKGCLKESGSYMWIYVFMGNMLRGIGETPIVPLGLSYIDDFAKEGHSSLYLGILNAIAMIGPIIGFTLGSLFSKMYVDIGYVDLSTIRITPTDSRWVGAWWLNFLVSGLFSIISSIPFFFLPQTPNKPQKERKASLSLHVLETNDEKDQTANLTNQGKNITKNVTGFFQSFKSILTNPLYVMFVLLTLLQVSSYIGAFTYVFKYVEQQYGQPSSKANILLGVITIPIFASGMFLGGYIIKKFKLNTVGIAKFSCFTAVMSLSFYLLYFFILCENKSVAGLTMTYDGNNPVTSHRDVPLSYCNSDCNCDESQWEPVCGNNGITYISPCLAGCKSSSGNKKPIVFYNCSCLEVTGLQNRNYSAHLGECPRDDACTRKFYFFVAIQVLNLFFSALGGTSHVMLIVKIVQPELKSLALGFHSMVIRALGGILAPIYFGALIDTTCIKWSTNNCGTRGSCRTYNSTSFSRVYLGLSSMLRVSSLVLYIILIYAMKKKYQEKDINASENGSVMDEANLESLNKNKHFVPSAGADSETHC
The data set can be described thus: Baricitinib substrate study in OATP1B1-transfected HEK-PEAK cells. Type of data set: in vitro ADME.

The next data set addresses T2, OCT1 (Homo sapiens, UniProt O15245).
T2 sequence (O15245 1-554): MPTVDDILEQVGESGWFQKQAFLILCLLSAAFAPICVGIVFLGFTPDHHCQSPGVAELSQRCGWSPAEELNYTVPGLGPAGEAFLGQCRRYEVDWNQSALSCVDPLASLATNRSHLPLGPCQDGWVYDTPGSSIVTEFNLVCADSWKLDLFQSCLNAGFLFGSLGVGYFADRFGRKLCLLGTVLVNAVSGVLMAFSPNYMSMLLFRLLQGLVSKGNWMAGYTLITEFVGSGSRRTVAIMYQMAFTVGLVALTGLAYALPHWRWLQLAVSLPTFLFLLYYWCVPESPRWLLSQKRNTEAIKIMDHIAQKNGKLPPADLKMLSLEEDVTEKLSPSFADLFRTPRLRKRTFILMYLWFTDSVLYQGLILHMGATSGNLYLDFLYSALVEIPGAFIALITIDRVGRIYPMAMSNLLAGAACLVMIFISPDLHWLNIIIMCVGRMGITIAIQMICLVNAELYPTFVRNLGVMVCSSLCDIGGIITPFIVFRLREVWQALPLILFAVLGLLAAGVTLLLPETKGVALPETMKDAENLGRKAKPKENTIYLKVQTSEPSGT
Put plainly: Baricitinib substrate study in OCT1-transfected HEK-PEAK cells. Type of data set: in vitro ADME.

The next data set deals with T3, OCT2 (Homo sapiens, UniProt O15244).
T3 sequence (O15244 1-555): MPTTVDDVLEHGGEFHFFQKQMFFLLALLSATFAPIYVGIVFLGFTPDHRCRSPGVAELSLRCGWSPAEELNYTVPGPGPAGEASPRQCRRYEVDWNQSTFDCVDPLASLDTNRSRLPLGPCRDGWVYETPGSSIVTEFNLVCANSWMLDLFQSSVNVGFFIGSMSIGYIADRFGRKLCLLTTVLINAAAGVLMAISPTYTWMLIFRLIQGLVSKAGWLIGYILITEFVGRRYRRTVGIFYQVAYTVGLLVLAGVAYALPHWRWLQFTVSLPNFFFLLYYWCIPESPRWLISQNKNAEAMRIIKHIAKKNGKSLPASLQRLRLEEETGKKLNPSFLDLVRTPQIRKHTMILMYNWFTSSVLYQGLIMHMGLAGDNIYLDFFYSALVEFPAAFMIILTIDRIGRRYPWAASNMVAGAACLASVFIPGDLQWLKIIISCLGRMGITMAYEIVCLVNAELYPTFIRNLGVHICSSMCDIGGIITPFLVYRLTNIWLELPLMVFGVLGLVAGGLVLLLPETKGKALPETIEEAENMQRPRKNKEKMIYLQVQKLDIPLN
The data set can be described thus: Baricitinib substrate study in OCT2-transfected HEK-PEAK cells. It is filed as in vitro ADME.

The target in a further data set is MATE2-K (Homo sapiens, UniProt Q86VL8). The data set can be described thus: Uptake of baricitinib into MATE2-K-transfected HEK cells. It is filed as in vitro ADME.
The conditions of data set [2]: cited from earlier work.
A further data set concerns the target T4, OATP1B3 (Homo sapiens, UniProt Q9NPD5).
T4 sequence (Q9NPD5 1-702): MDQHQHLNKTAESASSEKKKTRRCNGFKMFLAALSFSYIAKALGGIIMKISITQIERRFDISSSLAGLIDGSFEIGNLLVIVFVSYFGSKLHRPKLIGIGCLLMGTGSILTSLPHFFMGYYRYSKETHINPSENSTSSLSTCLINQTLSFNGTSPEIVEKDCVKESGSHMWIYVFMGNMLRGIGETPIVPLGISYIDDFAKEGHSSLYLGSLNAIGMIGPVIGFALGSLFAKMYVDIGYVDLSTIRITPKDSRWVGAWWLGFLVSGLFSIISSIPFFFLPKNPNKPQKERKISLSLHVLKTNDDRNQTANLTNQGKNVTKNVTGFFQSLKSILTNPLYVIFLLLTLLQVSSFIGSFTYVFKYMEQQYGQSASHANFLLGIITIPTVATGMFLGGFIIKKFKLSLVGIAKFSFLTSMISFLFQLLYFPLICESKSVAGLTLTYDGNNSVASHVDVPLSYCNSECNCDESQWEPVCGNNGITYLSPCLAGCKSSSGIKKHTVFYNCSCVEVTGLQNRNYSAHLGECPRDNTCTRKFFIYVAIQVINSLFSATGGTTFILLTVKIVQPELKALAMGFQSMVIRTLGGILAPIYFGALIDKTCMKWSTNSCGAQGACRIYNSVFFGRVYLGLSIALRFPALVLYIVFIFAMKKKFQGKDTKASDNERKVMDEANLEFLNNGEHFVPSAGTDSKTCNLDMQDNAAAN
Put plainly: Baricitinib substrate study in OATP1B3-transfected HEK-PEAK cells. Type of data set: in vitro ADME.

Data set [3] is described as follows: Human mass balance study of baricitinib. It is filed as in vivo.
A short description of data set [4]: Physicochemical input parameters.
A further data set has as its target P-gp (Homo sapiens, UniProt P08183). The data set can be described thus: Bidirectional transport of baricitinib in MDCK-MDR1 cells. Type of data set: in vitro ADME.

Chain of P-gp (P08183 whole entry): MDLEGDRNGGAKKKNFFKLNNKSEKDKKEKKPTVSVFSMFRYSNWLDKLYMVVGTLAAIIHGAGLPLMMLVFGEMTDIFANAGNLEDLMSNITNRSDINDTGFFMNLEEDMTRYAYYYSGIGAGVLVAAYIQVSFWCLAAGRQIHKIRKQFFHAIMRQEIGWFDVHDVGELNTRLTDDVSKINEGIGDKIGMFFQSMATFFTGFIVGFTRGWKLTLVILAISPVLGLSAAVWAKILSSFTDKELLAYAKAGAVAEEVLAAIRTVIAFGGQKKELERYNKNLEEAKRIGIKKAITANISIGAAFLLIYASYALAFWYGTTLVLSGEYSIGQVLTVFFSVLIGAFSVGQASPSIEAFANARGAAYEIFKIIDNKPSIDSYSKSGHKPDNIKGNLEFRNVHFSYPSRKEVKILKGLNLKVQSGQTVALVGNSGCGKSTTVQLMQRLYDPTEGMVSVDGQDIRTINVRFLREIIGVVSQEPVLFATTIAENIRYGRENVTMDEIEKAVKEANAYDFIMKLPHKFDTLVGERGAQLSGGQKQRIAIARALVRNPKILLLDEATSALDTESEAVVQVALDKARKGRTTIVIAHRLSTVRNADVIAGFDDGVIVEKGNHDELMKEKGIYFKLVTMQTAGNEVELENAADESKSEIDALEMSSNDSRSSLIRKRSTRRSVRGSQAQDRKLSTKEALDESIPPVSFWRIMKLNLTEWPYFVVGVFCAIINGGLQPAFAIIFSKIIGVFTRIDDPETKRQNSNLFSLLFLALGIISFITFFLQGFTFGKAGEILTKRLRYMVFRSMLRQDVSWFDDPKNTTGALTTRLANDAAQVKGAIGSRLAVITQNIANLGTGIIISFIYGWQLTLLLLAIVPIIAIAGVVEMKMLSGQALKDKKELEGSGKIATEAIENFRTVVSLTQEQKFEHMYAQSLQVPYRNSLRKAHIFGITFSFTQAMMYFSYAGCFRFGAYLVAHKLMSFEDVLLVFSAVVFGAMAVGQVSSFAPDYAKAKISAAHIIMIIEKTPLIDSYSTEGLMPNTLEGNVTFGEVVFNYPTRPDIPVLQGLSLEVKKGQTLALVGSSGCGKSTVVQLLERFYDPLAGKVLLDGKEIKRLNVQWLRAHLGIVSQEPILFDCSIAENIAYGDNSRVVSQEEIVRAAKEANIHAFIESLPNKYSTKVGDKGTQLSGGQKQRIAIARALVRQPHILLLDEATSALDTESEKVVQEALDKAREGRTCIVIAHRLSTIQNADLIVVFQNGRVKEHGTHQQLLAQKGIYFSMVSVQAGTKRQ
Chain of MATE2-K (Q86VL8 1-566 isoform Q86VL8-3): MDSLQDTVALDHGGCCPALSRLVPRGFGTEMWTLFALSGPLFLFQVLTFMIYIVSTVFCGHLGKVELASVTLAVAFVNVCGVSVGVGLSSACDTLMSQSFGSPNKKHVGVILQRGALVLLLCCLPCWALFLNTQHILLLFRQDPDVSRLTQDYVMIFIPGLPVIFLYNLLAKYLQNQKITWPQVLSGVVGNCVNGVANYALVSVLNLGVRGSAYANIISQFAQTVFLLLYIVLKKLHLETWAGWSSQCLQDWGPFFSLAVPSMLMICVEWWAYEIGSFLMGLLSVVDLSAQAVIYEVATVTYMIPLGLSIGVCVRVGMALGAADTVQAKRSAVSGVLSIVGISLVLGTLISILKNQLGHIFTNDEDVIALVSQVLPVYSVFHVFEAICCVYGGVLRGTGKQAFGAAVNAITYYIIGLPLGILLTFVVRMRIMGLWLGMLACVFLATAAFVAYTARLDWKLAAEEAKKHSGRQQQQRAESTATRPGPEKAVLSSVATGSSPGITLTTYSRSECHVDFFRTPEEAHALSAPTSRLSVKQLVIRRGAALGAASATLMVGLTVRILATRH

The term pKa denotes the negative logarithm of the acid dissociation constant. High values mean a group that holds its proton tightly, low ones a group that gives up its proton readily. For orientation: Papp means a coefficient for how fast a substance crosses the barrier. Higher therefore signals ready permeation. As a reminder, the Papp A→B is how fast a substance crosses the layer from the apical side. A low value points to poor permeation. For orientation: Papp B→A means how fast a substance crosses the layer from the basolateral side. Consider `CCS(=O)(=O)N1CC(CC#N)(n2cc(-c3ncnc4[nH]ccc34)cn2)C1` [Baricitinib], for which, in data set [1], the “ka (first-order absorption rate constant)” value is recorded as 1.2 h^‐1. The OATP1B1 substrate result at OATP1B1 is listed as “not a substrate”. For the same molecule, at OCT1, the OCT1 substrate entry is “not a substrate”. Also, the OCT2 substrate result on OCT2 was “not a substrate”. On MATE2-K, the MATE2-K substrate entry is recorded as “substrate of MATE2‐K” and the “MATE2‐K Vmax” value worked out at 1315 ± 129 pmol/min/mg protein. Also, on MATE2-K (0.5 min), the “Uptake into MATE2-K cells relative to control cells” value is reported as “approximately three times greater”. Further, the “MATE2‐K Vmax” value at MATE2-K (PBPK input) is given as 657.5 pmol/min/10^6 cells. In addition, in data set [2], the “eliminated unchanged in urine” value was 70 % of dose and the renal clearance is roughly 11 L/h. The “decrease in renal secretory clearance with cyclosporine” value in data set [2] (single 600 mg dose of cyclosporine) is given as 30%. Further, the OATP1B3 substrate result at OATP1B3 is “not a substrate”. In data set [3] (calculated from human mass balance study), the “Fa (fraction absorbed)” value is reported as 0.8. The blood plasma ratio in data set [3] (human, blood and plasma, oral) worked out at 1.26. In addition, the “dose found as parent compound in feces” value in [3] (in vivo) is 20 % of the dose. In data set [4], this molecule gave a pKa of 4. Besides, the P-gp substrate entry on P-gp is “P‐gp substrate”. At P-gp (dog, MDCK), this molecule yielded a Papp at 5 μM of 6.6 ×10⁻⁶ cm/s. Further, on P-gp (dog, MDCK-MDR1), the Papp A→B at 5 µM was 0.9 ×10⁻⁶ cm/s and the Papp B→A at 5 µM stood at 35.2 ×10⁻⁶ cm/s.
